# Measurements taken from patent US20240041042A1, “1-(PYRIDYL)-5-AZINYLPYRAZOLE DERIVATIVES, AND THEIR USE FOR CONTROL OF UNDESIRED PLANT GROWTH” (Bayer Aktiengesellschaft, priority 2020, published 2024).
# Read-outs that look alike come from different tables or passages of the source.
# Assays:
# Assay type in all cases: in vivo
# [1] = test system: Matricaria inodora (MATIN); experiment: Post-emergence herbicidal action against MATIN
# Summary of the method: (§1)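 Post-emergence greenhouse spray, one-leaf stage, 600 l/ha water plus 0.5% additive; WP or EC formulations; application rates 320 g/ha or lower. Visual % damage vs untreated controls at ~3 weeks.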
# [2] = test system: Digitaria sanguinalis (DIGSA); experiment: Pre-emergence herbicidal action against DIGSA
# Summary of the method: (§2)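 Herbicide applied to soil before seedling emergence, at 600 l/ha spray volume with 0.5% additive and rates up to 320 g/ha. Evaluation: visual percentage effect, about 3 weeks later, greenhouse-grown pots compared with untreated ones.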
# Setaria viridis (SETVI) [3] = experiment: Post-emergence herbicidal action against SETVI
# Summary of the method: as §1
# [4] = test system: Matricaria inodora (MATIN); experiment: Pre-emergence herbicidal action against MATIN; settings: dosage 320 g/ha
# Summary of the method: as §2
# [5] = test system: Alopecurus myosuroides (ALOMY); experiment: Pre-emergence herbicidal action against ALOMY; settings: scored visually after about 3 weeks, 100% = plants have died
# Summary of the method: as §2
# [6] = test system: Pharbitis purpurea (PHBPU); experiment: Pre-emergence herbicidal action against PHBPU; settings: dosage 320 g/ha
# Summary of the method: as §2
# Avena fatua (AVEFA) [7] = experiment: Pre-emergence herbicidal action against AVEFA; settings: 320 g/ha, visual scoring after about 3 weeks vs untreated controls
# Summary of the method: as §2
# Setaria viridis (SETVI) [8] = experiment: Pre-emergence herbicidal action against SETVI
# Summary of the method: as §2
# Oryza sativa (ORYSA) = settings: crop plant compatibility
# Summary of the method: (§3)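 Greenhouse crops in sandy loam sprayed post-emergence at the one-leaf stage, 2–3 weeks after sowing, with WP or EC formulations in water plus 0.5% additive at 600 l/ha. Damage rated visually about 3 weeks later versus untreated controls (0% = like control, 100% = dead); suffixes a–c denote different doses.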
# [9] = test system: Echinochloa crus-galli (ECHCG); experiment: Pre-emergence herbicidal action against ECHCG; settings: dosage 320 g/ha
# Summary of the method: as §2
# [10] = test system: Polygonum convolvulus (POLCO); experiment: Pre-emergence herbicidal action against POLCO
# Summary of the method: as §2
# Viola tricolor (VIOTR) [11] = experiment: Pre-emergence herbicidal action against VIOTR
# Summary of the method: as §2
# [12] = test system: Digitaria sanguinalis (DIGSA); experiment: Post-emergence herbicidal action against DIGSA; settings: visual rating about 3 weeks after treatment
# Summary of the method: as §1
# [13] = test system: Abutilon theophrasti (ABUTH); experiment: Post-emergence herbicidal action against ABUTH; settings: visual rating about 3 weeks after treatment vs untreated controls (100% = plants have died, 0% = like control plants)
# Summary of the method: as §1
# [14] = test system: Verconica persica (VERPE); experiment: Pre-emergence herbicidal action against VERPE; settings: dosage 320 g/ha
# Summary of the method: as §2
# [15] = test system: Amaranthus retroflexus (AMARE); experiment: Pre-emergence herbicidal action against AMARE; settings: visual scoring after about 3 weeks vs untreated controls
# Summary of the method: as §2
# [16] = test system: Verconica persica (VERPE); experiment: Post-emergence herbicidal action against VERPE
# Summary of the method: as §1
# [17] = test system: Alopecurus myosuroides (ALOMY); experiment: Post-emergence herbicidal action against ALOMY; settings: visual rating about 3 weeks after treatment vs untreated controls (100% = plants have died, 0% = like control plants)
# Summary of the method: as §1
# Lolium rigidum (LOLRI) [18] = experiment: Pre-emergence herbicidal action against LOLRI
# Summary of the method: as §2
# [19] = test system: Pharbitis purpurea (PHBPU); experiment: Post-emergence herbicidal action against PHBPU
# Summary of the method: as §1
# [20] = test system: Amaranthus retroflexus (AMARE); experiment: Post-emergence herbicidal action against AMARE
# Summary of the method: as §1
# [21] = test system: Echinochloa crus-galli (ECHCG); experiment: Post-emergence herbicidal action against ECHCG
# Summary of the method: as §1
# Zea mays (ZEAMX) [22] = test system: Zea mays (ZEAMX)
# Summary of the method: as §3
# Zea mays (ZEAMX) [23] = settings: pre-emergence, 80 g/ha, crop plant compatibility, in comparison to untreated controls
# Excerpt: Seeds of monocotyledonous and dicotyledonous weed plants and crop plants are placed in plastic or organic planting pots and covered with soil. The compounds of the invention, formulated in the form of wettable powders (WP) or as emulsion concentrates (EC), are then applied to the surface of the covering soil as aqueous suspension or emulsion with addition of 0.5% additive at a water application rate equivalent to 600 l/ha. After the treatment, the pots are placed in a greenhouse and kept under good growth conditions for the trial plants. After about 3 weeks, the effect of the preparations is scored visually in comparison with untreated controls as percentages. For example, 100% activity=the plants have died, 0% activity=like control plants.
# The observed effects on selected crop plants are reported here in comparison to the untreated controls (values in %). The appendices “a” “b” and “c” give differentiation by dosage used with otherwise the same crop plants tested.
# Lolium rigidum (LOLRI) [24] = experiment: Post-emergence herbicidal action against LOLRI
# Summary of the method: as §1
# Viola tricolor (VIOTR) [25] = experiment: Post-emergence herbicidal action against VIOTR
# Summary of the method: as §1
# [26] = test system: Polygonum convolvulus (POLCO); experiment: Post-emergence herbicidal action against POLCO; settings: dosage 320 g/ha
# Summary of the method: as §1
# Avena fatua (AVEFA) [27] = experiment: Post-emergence herbicidal action against AVEFA; settings: visual rating about 3 weeks after treatment
# Summary of the method: as §1
# [28] = 80 g/ha, visual scoring after about 3 weeks vs untreated controls
# [29] = 20 g/ha, effect vs untreated controls
# [30] = 80 g/ha, effect in comparison to untreated controls
# [31] = 80 g/ha, visual rating about 3 weeks after treatment vs untreated controls (100% = plants have died, 0% = like control plants)
smiles,measurement,setting,value
O=C(O)CNC(=O)COc1nn(-c2ccccn2)c(-c2ccc(F)nc2)c1Cl [Example I-118],Post-emergence action against MATIN in %,[1]; dosage 80 g/ha,80%
same,Pre-emergence action against DIGSA in %,[2]; [28],100%
same,Pre-emergence action against DIGSA in %,[2]; dosage 320 g/ha,100%
same,Post-emergence action against SETVI in %,Setaria viridis (SETVI) [3]; dosage 80 g/ha,80%
same,Pre-emergence action against MATIN in %,[4],90%
same,Pre-emergence action against ALOMY,[5]; 80 g/ha,90%
same,Pre-emergence action against ALOMY,[5]; 320 g/ha,100%
same,Pre-emergence action against PHBPU in %,[6],90%
same,Pre-emergence action against AVEFA in %,Avena fatua (AVEFA) [7],90%
same,Pre-emergence action against SETVI in %,Setaria viridis (SETVI) [8]; dosage 80 g/ha,90%
same,Pre-emergence action against SETVI in %,Setaria viridis (SETVI) [8]; dosage 320 g/ha,100%
same,Post-emergence action against ORYSA in %,Oryza sativa (ORYSA); [29],0%
same,Post-emergence action against ORYSA in %,Oryza sativa (ORYSA); [30],0%
same,Pre-emergence action against ECHCG in %,[9],100%
same,Pre-emergence action against POLCO in %,[10]; dosage 80 g/ha,80%
same,Pre-emergence action against POLCO in %,[10]; dosage 320 g/ha,90%
same,Pre-emergence action against VIOTR in %,"Viola tricolor (VIOTR) [11]; 320 g/ha, Viola tricolor",100%
same,Post-emergence action against DIGSA in %,[12]; 80 g/ha,80%
same,Post-emergence action against ABUTH in %,[13]; 80 g/ha,80%
same,Pre-emergence action against VERPE in %,[14],90%
same,Pre-emergence action against AMARE in %,[15]; 80 g/ha,90%
same,Pre-emergence action against AMARE in %,[15]; 320 g/ha,100%
same,Post-emergence action against VERPE in %,[16]; dosage 80 g/ha,90%
same,Post-emergence action against ALOMY in %,[17]; 80 g/ha,100%
same,Pre-emergence action against LOLRI in %,Lolium rigidum (LOLRI) [18]; dosage 80 g/ha,90%
same,Pre-emergence action against LOLRI in %,Lolium rigidum (LOLRI) [18]; dosage 320 g/ha,100%
same,Post-emergence action against PHBPU in %,[19]; dosage 80 g/ha,80%
same,Post-emergence action against AMARE in %,[20]; [31],90%
same,Post-emergence action against ECHCG in %,[21]; dosage 80 g/ha,80%
CCOC(=O)CN(C)S(=O)(=O)NC(=O)COc1nn(-c2ncccc2F)c(-c2ccc(F)nc2)c1Br [Example I-54],Pre-emergence action against DIGSA in %,[2]; [28],100%
same,Pre-emergence action against DIGSA in %,[2]; dosage 320 g/ha,100%
same,Post-emergence action against SETVI in %,Setaria viridis (SETVI) [3]; dosage 80 g/ha,80%
same,Pre-emergence action against MATIN in %,[4],100%
same,Pre-emergence action against ALOMY,[5]; 320 g/ha,100%
same,Pre-emergence action against SETVI in %,Setaria viridis (SETVI) [8]; dosage 320 g/ha,100%
same,Post-emergence action against ZEAMX in % (crop plant compatibility),"Zea mays (ZEAMX) [22]; 20 g/ha, ZEAMX, effect in comparison to untreated controls",0%
same,Post-emergence action against ORYSA in %,Oryza sativa (ORYSA); [29],0%
same,Post-emergence action against ORYSA in %,Oryza sativa (ORYSA); [30],0%
same,Pre-emergence action against ECHCG in %,[9],100%
same,Pre-emergence action against ZEAMX in %,Zea mays (ZEAMX) [23],0%
same,Pre-emergence action against POLCO in %,[10]; dosage 320 g/ha,90%
same,Pre-emergence action against VIOTR in %,"Viola tricolor (VIOTR) [11]; 320 g/ha, Viola tricolor",100%
same,Pre-emergence action against VIOTR in %,Viola tricolor (VIOTR) [11]; dosage 80 g/ha,100%
same,Post-emergence action against ABUTH in %,[13]; 80 g/ha,80%
same,Pre-emergence action against VERPE in %,[14],100%
same,Pre-emergence action against AMARE in %,[15]; 320 g/ha,100%
same,Post-emergence action against ALOMY in %,[17]; 80 g/ha,90%
same,Post-emergence action against AMARE in %,[20]; [31],80%
CCOC(=O)COc1nn(-c2nc(F)ccc2F)c(-c2ccc(F)nc2)c1C1CC1 [Example I-348],Post-emergence action against MATIN in %,[1]; dosage 320 g/ha,80%
same,Pre-emergence action against DIGSA in %,[2]; [28],90%
same,Pre-emergence action against DIGSA in %,[2]; dosage 320 g/ha,100%
same,Post-emergence action against SETVI in %,Setaria viridis (SETVI) [3]; dosage 80 g/ha,80%
same,Post-emergence action against SETVI in %,Setaria viridis (SETVI) [3]; dosage 320 g/ha,90%
same,Pre-emergence action against MATIN in %,[4],90%
same,Pre-emergence action against ALOMY,[5]; 320 g/ha,80%
same,Pre-emergence action against PHBPU in %,[6],90%
same,Pre-emergence action against AVEFA in %,Avena fatua (AVEFA) [7],90%
same,Pre-emergence action against SETVI in %,Setaria viridis (SETVI) [8]; dosage 80 g/ha,80%
same,Pre-emergence action against SETVI in %,Setaria viridis (SETVI) [8]; dosage 320 g/ha,100%
same,Post-emergence action against ZEAMX in %,"Zea mays (ZEAMX) [22]; crop plant compatibility, 80 g/ha, effect vs untreated controls",20%
same,Post-emergence action against ORYSA in %,Oryza sativa (ORYSA); [30],0%
same,Pre-emergence action against ECHCG in %,[9],90%
same,Post-emergence action against LOLRI in %,Lolium rigidum (LOLRI) [24]; dosage 80 g/ha,80%
same,Post-emergence action against LOLRI in %,Lolium rigidum (LOLRI) [24]; dosage 320 g/ha,80%
same,Pre-emergence action against VIOTR in %,"Viola tricolor (VIOTR) [11]; 320 g/ha, Viola tricolor",90%
same,Pre-emergence action against VIOTR in %,Viola tricolor (VIOTR) [11]; dosage 80 g/ha,80%
same,Post-emergence action against DIGSA in %,[12]; 80 g/ha,80%
same,Post-emergence action against DIGSA in %,[12]; 320 g/ha,90%
same,Post-emergence action against ABUTH in %,[13]; 320 g/ha,80%
same,Pre-emergence action against VERPE in %,[14],90%
same,Post-emergence action against VIOTR in %,Viola tricolor (VIOTR) [25]; 80 g/ha,80%
same,Post-emergence action against VIOTR in %,Viola tricolor (VIOTR) [25]; 320 g/ha,80%
same,Post-emergence action against POLCO in %,[26],80%
same,Pre-emergence action against AMARE in %,[15]; 320 g/ha,90%
same,Post-emergence action against VERPE in %,"[16]; 320 g/ha, VERPE",80%
same,Post-emergence action against VERPE in %,[16]; dosage 80 g/ha,80%
same,Post-emergence action against ALOMY in %,[17]; 80 g/ha,80%
same,Post-emergence action against ALOMY in %,[17]; 320 g/ha,90%
same,Pre-emergence action against LOLRI in %,Lolium rigidum (LOLRI) [18]; dosage 80 g/ha,90%
same,Pre-emergence action against LOLRI in %,Lolium rigidum (LOLRI) [18]; dosage 320 g/ha,100%
same,Post-emergence action against PHBPU in %,[19]; dosage 80 g/ha,80%
same,Post-emergence action against PHBPU in %,[19]; dosage 320 g/ha,80%
same,Post-emergence action against AVEFA in %,Avena fatua (AVEFA) [27]; 80 g/ha,80%
same,Post-emergence action against AVEFA in %,Avena fatua (AVEFA) [27]; 320 g/ha,80%
same,Post-emergence action against AMARE in %,"[20]; 320 g/ha, visual rating about 3 weeks after treatment",80%
same,Post-emergence action against ECHCG in %,[21]; dosage 80 g/ha,90%
same,Post-emergence action against ECHCG in %,[21]; dosage 320 g/ha,90%
